Data taken from US20190345146A1, “NITROGEN CONTAINING BICYCLIC DERIVATIVES FOR TREATING PAIN AND PAIN RELATED CONDITIONS” (ESTEVE PHARMACEUTICALS, S.A., priority 2016, published 2019).
Where two headings read alike, the source gives them in different places.

Assays:
[1] = target: human norepinephrine transporter (NET) (Homo sapiens, UniProt P23975); assay: Binding assay to human norepinephrine transporter (NET) ([3H]-Nisoxetin); conditions: Table 2, dual compounds, human NET enriched membranes, read-out: Ki(nM) NET Hum
Description: (§1) Readings were performed in a Trilux 1450 Microbeta radioactive counter (Perkin Elmer). • Binding assay to human norepinephrine transporter (NET).
Human norepinephrine transporter (NET) enriched membranes (5 μg) were incubated with 5 nM of radiolabeled [3H]-Nisoxetin in assay buffer containing 50 mM Tris-HCl, 120 mM NaCl, 5 mM KCl, pH 7.4.
NSB (non specific binding) was measured by adding 10 μM desipramine. The binding of the test compound was measured at five different concentrations. After 60 min incubation at 4° C., binding reaction was terminated by filtering through Multiscreen GF/C (Millipore) presoaked in 0.5% polyethyleneimine in Vacuum Manifold Station, followed by 3 washes with ice-cold filtration buffer containing 50 mM Tris-HCl, 0.9% NaCl, pH 7.4.
(§2) Filter plates were dried at 60° C. for 1 h and 30 μl of scintillation cocktail were added to each well before radioactivity reading.
Readings were performed in a Trilux 1450 Microbeta radioactive counter (Perkin Elmer).

[2] = target: human α2δ-1 subunit of Cav2.2 calcium channel (Homo sapiens, UniProt P54289); assay: Binding assay to human α2δ-1 subunit of Cav2.2 calcium channel ([3H]-Gabapentin); conditions: read-out: Ki(nM) alpha2delta Hum
Description: • Binding assay to human α2δ-1 subunit of Cav2.2 calcium channel.
Human α2δ-1 enriched membranes (2.5 μg) were incubated with 15 nM of radiolabeled [3H]-Gabapentin in assay buffer containing Hepes-KOH 10 mM, pH 7.4.
NSB (non specific binding) was measured by adding 10 μM pregabalin. The binding of the test compound was measured at five different concentrations. After 60 min of incubation at 27° C., the binding reaction was terminated by filtering through Multiscreen GF/C (Millipore) presoaked in 0.5% polyethyleneimine in Vacuum Manifold Station, followed by 3 washes with ice-cold filtration buffer containing 50 mM Tris-HCl, pH 7.4.
as §2, §1

Sequence of human α2δ-1 subunit of Cav2.2 calcium channel (P54289 25-1103): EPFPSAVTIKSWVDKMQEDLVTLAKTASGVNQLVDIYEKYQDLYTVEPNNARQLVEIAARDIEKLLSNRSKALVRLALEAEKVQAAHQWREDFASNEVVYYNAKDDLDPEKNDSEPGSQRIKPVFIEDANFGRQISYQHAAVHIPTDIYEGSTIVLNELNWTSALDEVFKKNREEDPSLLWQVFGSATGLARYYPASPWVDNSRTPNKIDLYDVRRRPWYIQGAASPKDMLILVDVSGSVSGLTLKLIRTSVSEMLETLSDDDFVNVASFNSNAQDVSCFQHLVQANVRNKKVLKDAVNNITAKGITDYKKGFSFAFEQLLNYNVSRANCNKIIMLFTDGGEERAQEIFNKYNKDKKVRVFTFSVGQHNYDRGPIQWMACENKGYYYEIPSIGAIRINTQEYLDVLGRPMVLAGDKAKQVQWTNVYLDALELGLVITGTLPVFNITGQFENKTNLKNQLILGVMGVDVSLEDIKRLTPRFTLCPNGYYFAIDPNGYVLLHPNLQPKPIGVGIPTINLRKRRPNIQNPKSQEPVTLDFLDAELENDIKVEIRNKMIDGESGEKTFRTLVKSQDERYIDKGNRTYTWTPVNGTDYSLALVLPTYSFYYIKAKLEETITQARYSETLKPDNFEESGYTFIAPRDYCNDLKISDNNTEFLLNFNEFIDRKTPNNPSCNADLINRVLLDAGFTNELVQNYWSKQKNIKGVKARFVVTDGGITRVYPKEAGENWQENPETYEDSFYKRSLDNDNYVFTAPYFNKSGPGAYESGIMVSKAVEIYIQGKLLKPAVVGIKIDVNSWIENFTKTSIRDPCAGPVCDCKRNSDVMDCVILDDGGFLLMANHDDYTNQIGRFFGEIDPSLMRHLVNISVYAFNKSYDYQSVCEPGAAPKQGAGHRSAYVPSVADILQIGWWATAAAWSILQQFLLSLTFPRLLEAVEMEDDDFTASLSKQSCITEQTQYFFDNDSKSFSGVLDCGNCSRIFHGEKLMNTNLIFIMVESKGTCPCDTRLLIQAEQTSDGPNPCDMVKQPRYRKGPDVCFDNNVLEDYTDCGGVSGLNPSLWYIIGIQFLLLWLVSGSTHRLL
Sequence of human norepinephrine transporter (NET) (P23975 whole entry): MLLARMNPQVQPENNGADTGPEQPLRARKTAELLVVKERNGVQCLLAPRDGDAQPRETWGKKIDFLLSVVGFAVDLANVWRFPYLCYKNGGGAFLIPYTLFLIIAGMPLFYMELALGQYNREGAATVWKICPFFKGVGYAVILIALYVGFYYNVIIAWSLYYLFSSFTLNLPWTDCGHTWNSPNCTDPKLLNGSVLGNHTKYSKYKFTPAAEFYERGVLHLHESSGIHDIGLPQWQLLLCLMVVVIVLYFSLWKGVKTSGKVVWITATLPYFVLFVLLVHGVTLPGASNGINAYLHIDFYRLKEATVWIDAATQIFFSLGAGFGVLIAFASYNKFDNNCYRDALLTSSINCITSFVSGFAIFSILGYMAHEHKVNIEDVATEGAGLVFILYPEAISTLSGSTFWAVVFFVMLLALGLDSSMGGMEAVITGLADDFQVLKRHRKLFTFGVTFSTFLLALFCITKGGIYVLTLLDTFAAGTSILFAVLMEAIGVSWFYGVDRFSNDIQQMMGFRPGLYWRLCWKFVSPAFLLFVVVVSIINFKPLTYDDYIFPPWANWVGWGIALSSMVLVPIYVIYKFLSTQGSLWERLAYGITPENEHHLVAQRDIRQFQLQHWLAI

`CNCCC(Oc1cccc2c1CCN(CC(F)F)C2)c1cccs1` (stereo not drawn) [Example 3, 3-((2-(2,2-difluoroethyl)-1,2,3,4-tetrahydroisoquinolin-5-yl)oxy)-N-methyl-3-(thiophen-2-yl)propan-1-amine] showed a Ki [1] of 500 to 1000 nM, a Ki ([2]; Table 1, human α2δ-1 enriched membranes) of 100 to 500 nM and a Ki ([2]; Table 2, dual compounds, human α2δ-1 enriched membranes) of 100 to 500 nM.
